Data published in patent US20220010019A1, “Targeting intraepithelial lymphocytes for treatment of metabolic syndrome” (The General Hospital Corporation, priority 2018, published 2022).

Test system: Ldlr−/− mice
Experiment: Atherosclerotic lesion quantification in HCD-fed Ldlr−/− mice, Glp1r agonist treatment
Type: in vivo
Settings: 8 weeks on HCD, 100 μg per kg per day via osmotic minipumps, vs PBS
Experimental: Glp1r agonist treatment. Ldlr−/− mice were treated with the Glp1r agonist exendin-4 (Abcam) at a dose of 100 μg per kg per day via osmotic minipumps (Alzet). After 8 weeks on a HCD, mice were euthanized for atherosclerotic lesion quantification.
Adipose tissue. iWAT and pWAT were excised, fixed in 10% formalin solution and paraffin-embedded. Haematoxylin and eosin staining was performed to assess overall tissue morphology. The adipocyte size distribution was determined with the NIH ImageJ program. Aortas. Aortic roots were dissected, embedded in Tissue-Tek OCT compound (Sakura Finetek) and frozen in 2-methylbutane (Fisher Scientific) cooled with dry ice. For comparisons of lesion sizes between the groups, sections with the maximum lesion area were used. To measure lesion volume, sections were collected at the first appearance of the aortic valves until lesions were no longer visible. Oil red O staining (Sigma-Aldrich) was performed to visualize lipid content and the lesion size was measured. To quantify lesion macrophage and smooth muscle cell content, immunohistochemistry was performed with anti-CD68 (BioLegend) and anti-Myh11 (Millipore) antibodies. […] To quantify collagen content, Masson trichrome staining (Sigma-Aldrich) was performed.

**Q.** How did the “atherosclerosis (plaque size, oil-red O-stained aortas)” value turn out when exendin-4 was run?
**A.** The value was “attenuated atherosclerosis”.
